Among the data in patent US12065445B2, “CDK2 inhibitors and methods of using the same” (Cedilla Therapeutics, Inc., priority 2021, dated 2024) are IC50 values, retold here.

The structures appear in SMILES notation. Bounds are passed on as bounds.

The target in one experiment is T1, CDK2/Cyclin E1 (Homo sapiens, UniProt P24941).
T1 construct: purchased Eurofins 14-475
The experiment is described as follows: CDK2/Cyclin E1 Caliper Assay (LabChip EZ Reader mobility shift). It counts as biochemical. Conditions: read-out: Caliper Assay (CDK2/CCNE1): IC50. The method, then:
Inhibition of CDK2/Cyclin E1 activity in the presence of compounds of the present disclosure was evaluated using a Caliper LabChip® EZ Reader mobility shift assay. In the assay, CDK2/Cyclin E1 (Eurofins, 14-475) catalyzed the phosphorylation of a fluorescently tagged peptide 5-FAM-QSPKKG-CONH2 (PerkinElmer, FL Peptide 18) which induced a difference in capillary electrophoresis mobility. The peptide substrate and product were measured, and the conversion ratio was used to determine the inhibition (as % activity and IC50 values) of CDK2/Cyclin E1. Reactions contained 50 mM HEPES pH 7.5, 10 mM MgCl2, 1 mM EDTA, 2 mM DTT, 0.01% Brij35, 0.5 mg/mL BSA, 0.1% DMSO, 2.5 nM CDK2/Cyclin E1, 100 μM ATP, and 1.5 μM fluorescent peptide substrate.
Dose titrations of inhibitors in 100% DMSO were combined with 3.25 nM CDK2/Cyclin E1 and 130 μM of ATP in reaction buffer. The mixtures were incubated for 30 minutes before the addition of fluorescent peptide substrate to initiate the kinase reaction. The final conditions were 2.5 nM CDK2/Cyclin E1, 100 μM ATP, and 1.5 μM fluorescent peptide. The reactions were stopped after 100 minutes with the addition of EDTA (400 mM final EDTA concentration). The stopped reactions were analyzed on a Caliper LabChip® EZ Reader II. The conversion ratios were normalized to yield % activity, plotted against compound concentration, and fit to a four-parameter equation to determine the IC50 for each compound.

In a further experiment the test system is Kuramochi cells. The experiment is described as follows: BrdU Cell Proliferation Assay. Conditions: read-out: BrdU - KURAMOCHI.1: IC50. It counts as cell-based. In outline:
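Kuramochi cells were seeded at 2,000 cells/well, adhered overnight, then treated with a 10-point, 3-fold compound dilution series for 4 days. Proliferation was measured by a 1-hour BrdU pulse, anti-BrdU peroxidase colorimetric ELISA and 450 nm absorbance. Values were background-subtracted and normalized to DMSO wells.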

Experiment [1] deals with Kuramochi cells labeled with mApple-H2B. The experiment is described as follows: IncuCyte Cell Proliferation Assay. It counts as cell-based. In outline:
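Cells imaged at 0 and 72 h after compound treatment (10 points, ½ log dilution, 20 μM top), with fluorescent nuclei counted. Fold change in count was normalized to DMSO wells and fitted to dose-response curves to give GI50.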

For the compound `C[C@@H](OCC1CCC(F)(F)CC1)[C@H](NC(=O)C1CN(C(=O)c2cnn(Cc3ccc(F)cc3)c2)CC12CN(C(=O)C1(C(F)(F)F)CC1)C2)C(=O)N1CCC(F)(F)CC1` (single isomer, unassigned) [I-190B], the IC50 on CDK2/Cyclin E1 is 100 to 1000 nM; in the experiment with Kuramochi cells it was 500 to 5000 nM; in experiment [1] (72 hours), 5000 to 20000 nM.

As to `C[C@@H](OCc1ccccc1)[C@H](NC(=O)C1CN(C(=O)c2cnn(Cc3ccccc3)c2)CC12CN(C(=O)C1CC1(C)C)C2)C(=O)NCCCCCNC(=O)OC(C)(C)C` (stereo partly drawn) [I-52], the IC50 at CDK2/Cyclin E1 was in the range of 10 to 100 nM; in the experiment on Kuramochi cells, 500 to 5000 nM; in experiment [1] (72 h) it was 500 to 5000 nM.

With `COCC1CCCN(C(=O)[C@@H](NC(=O)[C@H]2CN(C(=O)c3cnn(Cc4ccccc4)c3)CC23CN(C(=O)[C@H]2CC2(C)C)C3)[C@@H](C)OCC2CCCCC2)C1` (stereo partly drawn) [I-111], the results for the IC50 (at CDK2/Cyclin E1; in the experiment with Kuramochi cells; in experiment [1] (72 h)) were 10 to 100 nM, not above 500 nM and 500 to 5000 nM, respectively.

Consider `C[C@@H]1C[C@H](C)CN(C(=O)[C@@H](NC(=O)[C@@H]2CN(C(=O)c3cn[nH]c3)CC23CN(C(=O)[C@H]2CC2(C)C)C3)[C@@H](C)OCC2CCCCC2)C1` [I-173A], for which the values for the IC50 (on CDK2/Cyclin E1; in the experiment with Kuramochi cells; in experiment [1] (72 h)) were not above 10 nM, not above 500 nM and 500 to 5000 nM, respectively.

As for `C[C@@H](OCC1CCCCC1)[C@H](NC(=O)[C@@H]1CN(C(=O)c2cncs2)CC12CN(C(=O)[C@H]1CC1(C)C)C2)C(=O)N1CCC(F)(F)CC1` [I-192A], the figures for the IC50 (at CDK2/Cyclin E1; in the experiment with Kuramochi cells; in experiment [1] (72 h)) were not above 10 nM, not above 500 nM and not above 500 nM, respectively.

For the compound `CC(=O)N[C@H]1CCCN(C(=O)[C@@H](NC(=O)[C@@H]2CN(C(=O)c3cncs3)CC23CN(C(=O)[C@H]2CC2(C)C)C3)[C@@H](C)OCC2CCCCC2)C1` [I-330], the IC50 is not above 10 nM on CDK2/Cyclin E1, 5000 to 10000 nM with Kuramochi cells and 500 to 5000 nM in experiment [1] (72 h).

Take `Cc1ccc(CNC(=O)[C@@H]2CN(C(=O)c3cnn(Cc4ccccc4F)c3)CC23CN(C(=O)[C@H]2CC2(C)C)C3)nn1` [I-407]: the IC50 on CDK2/Cyclin E1 was more than 10000 nM; in experiment [1] (72 h) it was more than 20000 nM.

In the case of `CNC(=O)[C@@H](NC(=O)[C@@H]1CN(C(=O)c2cncs2)CC12CN(C(=O)[C@H]1CC1(C)C)C2)c1nnc(C2CCCCC2)o1` [I-429], the IC50 on CDK2/Cyclin E1 was 1000 to 10000 nM; in the experiment with Kuramochi cells, more than 10000 nM; in experiment [1] (72 h) it was more than 20000 nM.

In the case of `C[C@@H](OCC1CCOCC1)[C@@H](COC(F)F)NC(=O)[C@@H]1CN(C(=O)c2cncs2)CC12CN(C(=O)[C@H]1CC1(C)C)C2` [I-441], the IC50 on CDK2/Cyclin E1 was 100 to 1000 nM; in experiment [1] (72 h) it was more than 20000 nM.

Take `C[C@@H](OCC1CCOCC1)[C@H](NC(=O)[C@@H]1CN(C(=O)c2cncs2)CC12CN(C(=O)[C@H]1CC1(C)C)C2)C(=O)N1CCC(c2ccncc2)CC1` [I-442]: the figures for the IC50 (at CDK2/Cyclin E1; in experiment [1] (72 h)) were not above 10 nM and 5000 to 20000 nM, respectively.

In the case of `C[C@@H](OCC1CCC(F)(F)CC1)[C@H](NC(=O)[C@@H]1CN(C(=O)c2cncs2)CC12CN(C(=O)[C@H]1CC1(C)C)C2)C(=O)N1CC2CCC(C1)O2` [I-469], the values for the IC50 (at CDK2/Cyclin E1; in the experiment with Kuramochi cells; in experiment [1] (72 h)) were not above 10 nM, 500 to 5000 nM and not above 500 nM, respectively.
